Reference: patent US20230227427A1, “IL-17A MODULATORS” (SANOFI, priority 2010, published 2023)

Biological target: T1, human recombinant IL-17A (Homo sapiens, UniProt Q16552)
T1 construct: purchased R&D Systems 7955-IL/CF
T1 sequence (Q16552 24-155): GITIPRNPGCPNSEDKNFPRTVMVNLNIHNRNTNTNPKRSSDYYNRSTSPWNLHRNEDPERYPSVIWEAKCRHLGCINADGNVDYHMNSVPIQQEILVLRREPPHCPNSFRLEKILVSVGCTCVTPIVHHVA
Experiment: IL-17A AlphaLISA assay (block binding of IL-17A to its receptor IL-17RA)
Settings: compounds pre-incubated with the IL-17A for 24 h at room temperature; read-out: AlphaLISA pIC50 (converted)
Method: The ability of the compounds to block binding of IL-17A to its receptor, IL-17RA, was analysed in a competition assay using AlphaLISA technology (Perkin Elmer). The assay is a bead based AlphaLISA where the IL-17RA is captured on the acceptor bead via an Fc tag and IL-17A is captured on the streptavidin donor bead via a biotinylated anti-IL17A antibody.
Assay buffer was prepared by adding 0.05% Tween-20 (v/v) and 0.1% BSA to Phosphate Buffered Saline (PBS). The assay was carried out in 384-well white low volume plates (Corning 4512). 10 µL of a 7.5 nM stock of human recombinant IL-17A (R&D Systems 7955-IL/CF) diluted in assay buffer was dispensed into the assay plate and compounds or DMSO vehicle control were added in a volume of 75 nL using a D300 dispenser (Hewlett Packard). The compounds were pre-incubated with the IL-17A for 24 h at room temperature (or for 30 min, where indicated by * in Table A below) prior to addition of 5 μL of a 5 nM stock of human recombinant IL-17RA/Fc chimera (R&D Systems 177-IR-100) diluted in assay buffer. The IL-17A was incubated with the receptor for a further 90 minutes at room temperature before addition of 5 μL of a mixture of anti-human Fc IgG acceptor beads (75 μg/mL, Perkin Elmer AL103C) and anti-IL-17A biotin conjugated antibody (5 nM, Enzo Life Sciences, ENZ-ABS278-0100) in assay buffer. After a further 30 min incubation at room temperature, 5 μL of streptavidin donor beads ([…], Perkin Elmer 6760002S) were added and the plate was incubated for 3 h in the dark.
The luminescence signal was measured using an Enspire plate reader (Perkin Elmer) with excitation at 680 nm and emission at 615 nm. Data were analysed using GraphPad Prism and fitted to a 4-parameter logistic equation. The IC50 values were calculated using the DMSO vehicle as the negative control and a high concentration (6 μM) of a reference IL-17A inhibitor as the positive control.
Activity of the Example compounds is reported as a PIC50 value in Table A.

| IC50 | Structure (SMILES) |
| --- | --- |
| 0.00501 µM | COc1c[n+]([O-])ccc1-c1ccc(NC(=O)[C@@H](NC(=O)c2ccnn2C)C(c2ccccc2)c2ccccc2)cc1 [Example 25, (S)-3-methoxy-4-(4-(2-(1-methyl-1H-pyrazole-5-carboxamido)-3,3-diphenylpropanamido)phenyl)pyridine 1-oxide] |
| 0.00794 µM | Cc1c[n+]([O-])cc(C)c1-c1ccc(NC(=O)[C@@H](NC(=O)c2ccnn2C)C(c2ccccc2)c2ccccc2)cc1 [Example 26, (S)-3,5-dimethyl-4-(4-(2-(1-methyl-1H-pyrazole-5-carboxamido)-3,3-diphenylpropanamido)phenyl)pyridine 1-oxide] |
| 0.0794 µM | Cn1nccc1C(=O)N[C@H](C(=O)Nc1ccc(-c2ccncc2F)cc1)C(c1ccccc1)c1ccccc1 [Example 36, (S)—N-(1-((4-(3-fluoropyridin-4-yl)phenyl)amino)-1-oxo-3,3-diphenylpropan-2-yl)-1-methyl-1H-pyrazole-5-carboxamide] |
| 0.0398 µM | Cc1ncc(C)c(-c2ccc(NC(=O)[C@@H](NC(=O)c3ccnn3C)C(c3ccccc3)c3ccccc3)cc2)n1 [Example 37, (S)—N-(1-((4-(2,5-dimethylpyrimidin-4-yl)phenyl)amino)-1-oxo-3,3-diphenylpropan-2-yl)-1-methyl-1H-pyrazole-5-carboxamide] |
| 0.1 µM | Cc1cc(-c2ccc(NC(=O)[C@@H](NC(=O)c3ccnn3C)C(c3ccccc3)c3ccccc3)cc2)c(C)cn1 [Example 38, (S)—N-(1-((4-(2,5-dimethylpyridin-4-yl)phenyl)amino)-1-oxo-3,3-diphenylpropan-2-yl)-1-methyl-1H-pyrazole-5-carboxamide] |
| 0.2 µM | Cn1nccc1C(=O)N[C@H](C(=O)Nc1ccc(-c2cnc3ccccn23)cc1)C(c1ccccc1)c1ccccc1 [Example 39, (S)—N-(1-((4-(imidazo[1,2-a]pyridin-3-yl)phenyl)amino)-1-oxo-3,3-diphenylpropan-2-yl)-1-methyl-1H-pyrazole-5-carboxamide] |
| 0.2 µM | Cn1nccc1C(=O)N[C@H](C(=O)Nc1ccc(-c2cnc3ncccn23)cc1)C(c1ccccc1)c1ccccc1 [Example 41, (S)—N-(1-((4-(imidazo[1,2-a]pyrimidin-3-yl)phenyl)amino)-1-oxo-3,3-diphenylpropan-2-yl)-1-methyl-1H-pyrazole-5-carboxamide] |
| 0.0501 µM | Cn1nccc1C(=O)N[C@H](C(=O)Nc1ccc(-c2ccncc2CO)cc1)C(c1ccccc1)c1ccccc1 [Example 42, (S)—N-(1-((4-(3-(hydroxymethyl)pyridin-4-yl)phenyl)amino)-1-oxo-3,3-diphenylpropan-2-yl)-1-methyl-1H-pyrazole-5-carboxamide] |
| 0.126 µM | Cn1nccc1C(=O)N[C@H](C(=O)Nc1ccc(-c2ccncc2C#N)cc1)C(c1ccccc1)c1ccccc1 [Example 43, (S)—N-(1-((4-(3-cyanopyridin-4-yl)phenyl)amino)-1-oxo-3,3-diphenylpropan-2-yl)-1-methyl-1H-pyrazole-5-carboxamide] |
| 0.251 µM | Cn1nccc1C(=O)N[C@H](C(=O)Nc1ccc(-c2ccnc3c2CCC3)cc1)C(c1ccccc1)c1ccccc1 [Example 44, (S)—N-(1-((4-(6,7-dihydro-5H-cyclopenta[b]pyridin-4-yl)phenyl)amino)-1-oxo-3,3-diphenylpropan-2-yl)-1-methyl-1H-pyrazole-5-carboxamide] |
| 0.1 µM | Cc1cc(NC(=O)[C@@H](NC(=O)c2ccnn2C)C(c2ccccc2)c2ccccc2)ccc1-c1ccncc1 [Example 45, (S)-1-methyl-N-(1-((3-methyl-4-(pyridin-4-yl)phenyl)amino)-1-oxo-3,3-diphenylpropan-2-yl)-1H-pyrazole-5-carboxamide] |
| 0.1 µM | COc1cnccc1-c1ccc(NC(=O)[C@@H](NC(=O)c2ccnn2C(F)F)C(c2ccccc2)c2ccccc2)cc1 [Example 46, (S)-1-(difluoromethyl)-N-(1-((4-(3-methoxypyridin-4-yl)phenyl)amino)-1-oxo-3,3-diphenylpropan-2-yl)-1H-pyrazole-5-carboxamide] |

Second part, the compound before the results:

| Structure (SMILES) | IC50 |
| --- | --- |
| COc1cnccc1-c1ccc(NC(=O)[C@@H](NC(=O)c2ccnn2C)C(c2ccccc2)c2ccccc2)cc1F [Example 24, (S)—N-(1-((3-fluoro-4-(3-methoxypyridin-4-yl)phenyl)amino)-1-oxo-3,3-diphenylpropan-2-yl)-1-methyl-1H-pyrazole-5-carboxamide] | 0.0316 µM |
| COc1c[n+]([O-])cc(OC)c1-c1ccc(NC(=O)[C@@H](NC(=O)c2ccnn2C)C(c2ccccc2)c2ccccc2)cc1 [Example 27, (S)-3,5-dimethoxy-4-(4-(2-(1-methyl-1H-pyrazole-5-carboxamido)-3,3-diphenylpropanamido)phenyl)pyridine 1-oxide] | 0.00501 µM |
| COc1c[n+]([O-])cc(F)c1-c1ccc(NC(=O)[C@@H](NC(=O)c2ccnn2C)C(c2ccccc2)c2ccccc2)cc1 [Example 28, (S)-3-fluoro-5-methoxy-4-(4-(2-(1-methyl-1H-pyrazole-5-carboxamido)-3,3-diphenylpropanamido)phenyl)pyridine 1-oxide] | 0.00794 µM |
| Cc1c(-c2c(F)cc(NC(=O)[C@@H](NC(=O)c3ccnn3C)C(c3ccccc3)c3ccccc3)cc2F)ccc(=O)n1C [Example 29, (S)—N-(1-((4-(1,2-dimethyl-6-oxo-1,6-dihydropyridin-3-yl)-3,5-difluorophenyl)amino)-1-oxo-3,3-diphenylpropan-2-yl)-1-methyl-1H-pyrazole-5-carboxamide] | 0.02 µM |
| COc1cnccc1-c1c(F)cc(NC(=O)[C@@H](NC(=O)c2ccnn2C)C(c2ccccc2)c2ccccc2)cc1F [Example 30, (S)—N-(1-((3,5-difluoro-4-(3-methoxypyridin-4-yl)phenyl)amino)-1-oxo-3,3-diphenylpropan-2-yl)-1-methyl-1H-pyrazole-5-carboxamide] | 0.0398 µM |
| Cc1nn(Cc2ccccc2)c(C)c1-c1ccc(NC(=O)[C@@H](NC(=O)c2ccnn2C)C(c2ccccc2)c2ccccc2)cc1 [Example 31, (S)—N-(1-((4-(1-benzyl-3,5-dimethyl-1H-pyrazol-4-yl)phenyl)amino)-1-oxo-3,3-diphenylpropan-2-yl)-1-methyl-1H-pyrazole-5-carboxamide] | 0.631 µM |
| Cc1n[nH]c(C)c1-c1ccc(NC(=O)[C@@H](NC(=O)c2ccnn2C)C(c2ccccc2)c2ccccc2)cc1 [Example 32, (S)—N-(1-((4-(3,5-dimethyl-1H-pyrazol-4-yl)phenyl)amino)-1-oxo-3,3-diphenylpropan-2-yl)-1-methyl-1H-pyrazole-5-carboxamide] | 0.0126 µM |
| Cc1c(-c2ccc(NC(=O)[C@@H](NC(=O)c3ccnn3C)[C@H]3CC[C@H](C)CC3)cc2)ccc(=O)n1C [Example 33, N—((S)-2-((4-(1,2-dimethyl-6-oxo-1,6-dihydropyridin-3-yl)phenyl)amino)-1-((1r,4S)-4-methylcyclohexyl)-2-oxoethyl)-1-methyl-1H-pyrazole-5-carboxamide] | 0.0794 µM |
| CCn1nccc1C(=O)N[C@H](C(=O)Nc1ccc(-c2ccc(=O)[nH]n2)c(F)c1)C(c1ccccc1)c1ccccc1 [Example 34, (S)-1-ethyl-N-(1-((3-fluoro-4-(6-oxo-1,6-dihydropyridazin-3-yl)phenyl)amino)-1-oxo-3,3-diphenylpropan-2-yl)-1H-pyrazole-5-carboxamide] | 0.2 µM |
| Cn1nccc1C(=O)N[C@H](C(=O)Nc1ccc(-c2cc[nH]c(=O)c2)c(F)c1)C(c1ccccc1)c1ccccc1 [Example 35, (S)—N-(1-((3-fluoro-4-(2-oxo-1,2-dihydropyridin-4-yl)phenyl)amino)-1-oxo-3,3-diphenylpropan-2-yl)-1-methyl-1H-pyrazole-5-carboxamide] | 0.0251 µM |
| Cn1nccc1C(=O)N[C@H](C(=O)Nc1ccc(-c2ncnc3c2CCN3)cc1)C(c1ccccc1)c1ccccc1 [Example 40, (S)—N-(1-((4-(6,7-dihydro-5H-pyrrolo[2,3-d]pyrimidin-4-yl)phenyl)amino)-1-oxo-3,3-diphenylpropan-2-yl)-1-methyl-1H-pyrazole-5-carboxamide] | 0.0631 µM |
| COc1cnccc1-c1ccc(NC(=O)[C@@H](NC(=O)c2ccnn2C)C(c2ccccc2)c2ccccc2)cc1OC [Example 47, (S)—N-(1-((3-methoxy-4-(3-methoxypyridin-4-yl)phenyl)amino)-1-oxo-3,3-diphenylpropan-2-yl)-1-methyl-1H-pyrazole-5-carboxamide] | 0.0251 µM |
